# Source: article PMC6888270 (International Journal of Molecular Sciences, 2019)
# Square brackets hold non-standard residues; d marks the D form. Peptide text beside a SMILES is read from it. d(hArg(Et2)) = CCN=C(NCC)NCCCC[C@@H](N)C(=O)O; hArg(Et2) = CCN=C(NCC)NCCCC[C@H](N)C(=O)O; dPhe(4-Cl) = N[C@H](Cc1ccc(Cl)cc1)C(=O)O; d2Nal = N[C@H](Cc1ccc2ccccc2c1)C(=O)O; dCit = NC(=O)NCCC[C@@H](N)C(=O)O; d3Pal = N[C@H](Cc1cccnc1)C(=O)O
# Legend:
# Lhb gene expression = Lhb gene expression by qRT-PCR in LβT2 cells; type: cell-based, mouse; settings: 1 µM GnRH + 1 µM antagonist, 24 h, n = 4
# Description: LβT2 cells were seeded in 24-well plates (2 × 10^5 cells/well) and cultured for 24 h in DMEM supplemented with 10% Charcoal Stripped FBS, 4.5 g/L glucose, 100 IU/mL penicillin, 0.1 mg/mL streptomycin, and 1 mM glutamine (all from Sigma-Aldrich) before treatments. […] Samples were lysed for RNA extraction using TRIzolTM Reagent (Invitrogen) and equal amounts of total RNA were used for cDNA synthesis performed using the iScript reverse transcriptase (BioRad), as previously described. qRT-PCR was carried out in triplicates on the CFX96TM Real-Time PCR Detection System (BioRad) using the following primers pairs: [NT] for mouse Lhb; [NT] for mouse Gapdh. Primer sequences were drawn using the Mus musculus Lhb (NCBI Reference Sequence: NM_008497.2) and Gapdh (NM_008084.3) mRNAs as templates. Gene expression of Lhb was normalized to mouse Gapdh gene expression using the 2^-ΔΔCt method.
# GnRH receptor (GnRHR) [1] = molecular target: T1, GnRH receptor (GnRHR) (Homo sapiens, UniProt P30968); test: BRET measurement of GnRH-induced intracellular Ca2+ increase in SH-SY5Y/GnRHR cells; type: cell-based; design: HA (hemagglutinin); expressed in transfected cells; settings: means±SEM, n=6
# T1 sequence (P30968 1-328): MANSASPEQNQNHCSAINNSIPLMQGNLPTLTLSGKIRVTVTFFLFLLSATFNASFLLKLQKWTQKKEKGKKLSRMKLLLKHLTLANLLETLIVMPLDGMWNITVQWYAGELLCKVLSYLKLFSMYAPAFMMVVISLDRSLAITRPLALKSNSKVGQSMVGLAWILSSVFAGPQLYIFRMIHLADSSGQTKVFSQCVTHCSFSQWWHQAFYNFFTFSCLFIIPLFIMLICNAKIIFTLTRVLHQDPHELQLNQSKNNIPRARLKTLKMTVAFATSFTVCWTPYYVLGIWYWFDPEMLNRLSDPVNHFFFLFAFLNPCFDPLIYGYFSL
# Description: Different transfection protocols were followed, depending on the endpoint to be measured. For BRET experiments, 3 × 10^4 cells were transiently transfected using vectors expressing the cAMP-CAMYEL or the aequorin-Ca^2+ BRET biosensor-encoding cDNA [59], as appropriate, together with the GnRHR-HA-encoding vector. Transfections were performed in a 96-well plate using the Metafectene PRO reagent (Biontex, München, Germany), as previously described. 100 ng of the receptor-encoding vector + 100 ng of the BRET biosensor-encoding vector were used for co-transfecting HEK293 cells, while SH-SY5Y cells were co-transfected using 200 ng of the receptor-encoding vector + 100 ng of the BRET biosensor-encoding vector. 200 ng of the aequorin-Ca^2+ BRET biosensor-encoding cDNA were used for transfecting LβT2 cells. Each sample was prepared in duplicate, cultured for 48 h and serum-starved over-night before experiments.
# To evaluate Ca^2+ increase, cells were incubated in Hank’s Balanced Salt Solution (HBSS) with Ca^2+ and Mg^2+, 1 mM Hepes and 5 µM Coelenterazine H (NanoLight Technologies, a division of Prolume, Ltd., Pinetop, AZ, USA), for 45 minutes, together with Cetrorelix, Ganirelix, Teverelix or vehicle, as appropriate. […] The EC50 was extrapolated from the curve obtained from each cell line. Cells treated by 5 µM of the sarco/endoplasmic reticulum Ca^2+ ATPase enzyme inhibitor, thapsigargin (Tocris Bioscience), served as positive control. Treatment by the vehicle (HBSS) was the negative control and used as a normalizer.
# (§1) BRET experiments were performed using a CLARIOstar plate reader equipped by a monocromator (BMG Labtech, Ortenberg, Germany), as previously described.
# Data were plotted on graphs as means ± standard error of means (SEM). The kinetics of intracellular Ca^2+ increase was represented by the BRET biosensor emission after background subtraction (vehicle). […] Data distributions were analyzed by D’Agostino and Pearson normality tests and inhibition of intracellular Ca^2+ increase by different concentrations of antagonist were compared using two-way analysis of variance (ANOVA), followed by Bonferroni post-test or Kruskal-Wallis and proper post-test. cAMP accumulation was represented as acceptor:donor emission ratio (induced BRET changes) after basal subtraction (untreated cells). Dose-response curves were obtained by data interpolation using non-linear regressions and normalized as percentage of the maximal response. EC50s, as well as half-maximal inhibitory concentrations (IC50), were compared by t-test or Mann–Whitney U test, while results obtained by Western blotting and qRT-PCR data were compared by one-way ANOVA followed by Bonferroni post-test. Statistical differences were considered as significant for p < 0.05. These analyses were performed using the GraphPad Prism software (GraphPad Software Inc., San Diego, CA, USA).
# GnRH receptor (GnRHR) [2] = molecular target: T1, GnRH receptor (GnRHR); test: BRET (CAMYEL) measurement of cAMP accumulation in SH-SY5Y/GnRHR cells; type: cell-based; design: HA (hemagglutinin); expressed in transfected cells
# Description: (§2) Different transfection protocols were followed, depending on the endpoint to be measured. For BRET experiments, 3 × 10^4 cells were transiently transfected using vectors expressing the cAMP-CAMYEL or the aequorin-Ca^2+ BRET biosensor-encoding cDNA [59], as appropriate, together with the GnRHR-HA-encoding vector. Transfections were performed in a 96-well plate using the Metafectene PRO reagent (Biontex, München, Germany), as previously described. […]
# (§3) cAMP accumulation was measured in cells transiently expressing both the BRET-based cAMP biosensor CAMYEL [64] and GnRHR. […] BRET signals were detected at 475 and 535 nm wavelengths upon the addition of 5 µM Coelenterazine H (NanoLight Technologies). […]
# as §1
# (§4) Data were plotted on graphs as means ± standard error of means (SEM). […] Data distributions were analyzed by D’Agostino and Pearson normality tests and inhibition of intracellular Ca^2+ increase by different concentrations of antagonist were compared using two-way analysis of variance (ANOVA), followed by Bonferroni post-test or Kruskal-Wallis and proper post-test. cAMP accumulation was represented as acceptor:donor emission ratio (induced BRET changes) after basal subtraction (untreated cells). […]
# GnRH receptor (GnRHR) [3] = molecular target: T1, GnRH receptor (GnRHR); test: BRET (CAMYEL) measurement of cAMP accumulation in HEK293/GnRHR cells; type: cell-based; design: HA (hemagglutinin); expressed in transfected cells; host or cells: HEK293 (transient co-transfection with BRET biosensor)
# Description: as §2, §3, §1, §4
# [4] = 3xEC50 GnRH + 100 pM antagonist
# [5] = 3xEC50 GnRH + 100 nM antagonist
# [6] = read-out: IC50 of inhibition of GnRH-induced cAMP accumulation
Structure (SMILES),effect on GnRH-induced Lhb gene expression (Lhb gene expression),AUC of the kinetics of intracellular Ca2+ response (GnRH receptor (GnRHR) [1]; 3xEC50 GnRH + 1 pM antagonist),AUC of the kinetics of intracellular Ca2+ response (GnRH receptor (GnRHR) [1]; 3xEC50 GnRH + 10 pM antagonist),AUC of the kinetics of intracellular Ca2+ response (GnRH receptor (GnRHR) [1]; [4]),AUC of the kinetics of intracellular Ca2+ response (GnRH receptor (GnRHR) [1]; 3xEC50 GnRH + 1 nM antagonist),AUC of the kinetics of intracellular Ca2+ response (GnRH receptor (GnRHR) [1]; 3xEC50 GnRH + 10 nM antagonist),AUC of the kinetics of intracellular Ca2+ response (GnRH receptor (GnRHR) [1]; 3xEC50 GnRH + 20 nM antagonist),AUC of the kinetics of intracellular Ca2+ response (GnRH receptor (GnRHR) [1]; [5]),AUC of the kinetics of intracellular Ca2+ response (GnRH receptor (GnRHR) [1]; 3xEC50 GnRH + 1 uM antagonist),IC50 (GnRH receptor (GnRHR) [2]),IC50 (GnRH receptor (GnRHR) [3]),IC50 (GnRH receptor (GnRHR) [2]; [6]),IC50 (GnRH receptor (GnRHR) [3]; [6])
CC(=O)N[C@H](Cc1ccc2ccccc2c1)C(=O)N[C@H](Cc1ccc(Cl)cc1)C(=O)N[C@H](Cc1cccnc1)C(=O)N[C@@H](CO)C(=O)N[C@@H](Cc1ccc(O)cc1)C(=O)N[C@H](CCCNC(N)=O)C(=O)N[C@@H](CC(C)C)C(=O)N[C@@H](CCCNC(=N)N)C(=O)N1CCC[C@H]1C(=O)N[C@H](C)C(N)=O [Cetrorelix] (Ac-[d2Nal][dPhe(4-Cl)][d3Pal]SY[dCit]LRP[dA]-NH2),inhibited,105586±22643,103653±11947,118914±31558,81413±26479,81282±26769,58382±8030,46414±15714,13355±4381,1.56 ± 2.49 nM,0.84 nM,–,–
CCN=C(NCC)NCCCC[C@H](NC(=O)[C@H](CC(C)C)NC(=O)[C@@H](CCCCNC(=NCC)NCC)NC(=O)[C@H](Cc1ccc(O)cc1)NC(=O)[C@H](CO)NC(=O)[C@@H](Cc1cccnc1)NC(=O)[C@@H](Cc1ccc(Cl)cc1)NC(=O)[C@@H](Cc1ccc2ccccc2c1)NC(C)=O)C(=O)N1CCC[C@H]1C(=O)N[C@H](C)C(N)=O [Ganirelix] (Ac-[d2Nal][dPhe(4-Cl)][d3Pal]SY[d(hArg(Et2))]L[hArg(Et2)]P[dA]-NH2; N-terminus and C-terminus assumed),inhibited,93877±14161,113983±12281,116076±24125,75460±15613,83904±19566,52343±8665,82720±17902,6523±3056,–,–,16.6 ± 3.76 nM,0.61 nM
